Data on 1 compound can be found in US9821004B2, “Inhibition of a lncRNA for treatment of melanoma” (VIB VZW, priority 2013, dated 2017).

The test system of experiment [1] is BRAFV600E human melanoma cell line. Description: Apoptosis (Annexin-5-positive cells by FACS) after gapmer transfection plus BRAFV600E-inhibitor. It counts as cell-based. Particulars: gapmer 3 transfection; 24 hours after exposure to the BRAFV600E-inhibitor, 48 hours after transfection, FIG. 16. As for the experimental part: Apoptosis was measured by quantification of Annexin-5-positive cells by FACS 24 hours after exposure to the BRAFV600E-inhibitor (and 48 hours after transfection). Representative pictures of the cells are shown.
Importantly, knock-down of LINC01212 sensitizes BRAFV600E-melanoma cells to a BRAF-inhibitor currently used in the clinic, […] (FIG. 16).

Experiment [2] relates to BRAFV600E-positive melanomas. Particulars: patients with BRAFV600E-positive melanomas; cited from earlier work.

In the case of `CCCS(=O)(=O)Nc1ccc(F)c(C(=O)c2c[nH]c3ncc(-c4ccc(Cl)cc4)cc23)c1F` [PLX4032], the “sensitization of BRAFV600E-melanoma cells to BRAF-inhibitor by LINC01212 knock-down (apoptosis)” value in experiment [1] was “sensitizes”. For the same compound, the anti-tumor response rate in experiment [2] is recorded as 80%.
